{"source": "patent EP0714912B1", "about": "“GMP-140 ligand” (THE BOARD OF REGENTS OF THE UNIVERSITY OF OKLAHOMA, priority 1990, dated 1992)", "target": "T1, immobilized GMP-140 (Homo sapiens, UniProt P16109)", "T1 construct": "from tissue; host or cells: outdated human platelet packs", "T1 sequence (P16109 42-830)": "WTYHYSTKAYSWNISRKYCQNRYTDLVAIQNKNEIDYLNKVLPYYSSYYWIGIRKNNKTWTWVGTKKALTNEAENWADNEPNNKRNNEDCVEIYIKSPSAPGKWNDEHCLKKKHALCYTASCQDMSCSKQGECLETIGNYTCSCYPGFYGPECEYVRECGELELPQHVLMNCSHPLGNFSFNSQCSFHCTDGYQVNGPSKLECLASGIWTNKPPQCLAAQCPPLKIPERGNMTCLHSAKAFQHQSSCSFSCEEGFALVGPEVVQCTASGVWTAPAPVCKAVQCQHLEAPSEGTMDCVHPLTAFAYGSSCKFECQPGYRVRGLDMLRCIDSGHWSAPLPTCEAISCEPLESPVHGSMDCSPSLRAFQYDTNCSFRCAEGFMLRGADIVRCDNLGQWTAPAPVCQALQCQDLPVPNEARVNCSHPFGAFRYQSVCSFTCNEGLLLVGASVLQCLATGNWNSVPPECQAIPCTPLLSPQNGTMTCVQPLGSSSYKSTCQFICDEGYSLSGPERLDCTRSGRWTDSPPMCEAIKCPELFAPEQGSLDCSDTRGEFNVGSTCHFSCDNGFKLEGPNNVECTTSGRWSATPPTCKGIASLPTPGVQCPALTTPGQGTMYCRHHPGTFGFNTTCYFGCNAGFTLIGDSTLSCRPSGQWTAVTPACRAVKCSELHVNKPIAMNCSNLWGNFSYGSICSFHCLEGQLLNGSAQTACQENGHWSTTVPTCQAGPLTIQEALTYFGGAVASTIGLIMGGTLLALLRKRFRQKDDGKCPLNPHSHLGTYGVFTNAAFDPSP", "experiment": "Neutrophil adhesion to purified GMP-140 immobilized on plastic wells (myeloperoxidase read-out)", "type": "cell-based", "details": "concentrations up to 300 µM", "text": "Peptides were screened for their ability to inhibit neutrophil adhesion to purified GMP-140 immobilized on plastic wells, using the assay described by Geng, et al., Nature 343, 757-760 (1990).\nHuman neutrophils are isolated from heparinized whole blood by density gradient centrifugation on Mono-Poly resolving media, Flow Laboratories. Neutrophil suspensions are greater than 98% pure and greater than 95% viable by trypan blue exclusion. For adhesion assays, neutrophils are suspended at a concentration of 2 x 10^6 cells/ml in Hanks' balanced salt solution containing 1.26 mM Ca^2+ and 0.81 mM Mg^2+ (HBSS, Gibco) with 5 mg/ml human serum albumin (HBSS/HSA). Adhesion assays are conducted in triplicate in 96-well microtiter plates, Corning, incubated at 4°C overnight with 50 microliters of various protein solutions.\nGMP-140 is plated at 5 micrograms/ml and the control proteins: human serum albumin (Alb), platelet glycoprotein IIb/IIIa (IIb), von Willebrand factor (vWF), fibrinogen (FIB), thrombomodulin (TM), gelatin (GEL) or human serum (HS), are added at 50 micrograms/ml. All wells are blocked for 2 h at 22°C with 300 microliters HBSS containing 10 mg/ml HSA, then washed three times with HBSS containing 0.1% Tween-20 and once with HBSS. […] Inhibition is read as a lower percent adhesion, so that a value of 5% means that 95% of the specific adhesion was inhibited. […]"}
{"smiles": "CC(=O)N[C@H]1[C@H](O[C@H]2[C@@H](O)[C@@H](CO)O[C@@H](O[C@H]3[C@H](O)[C@@H](O)C(O)O[C@@H]3CO)[C@@H]2O)O[C@H](CO)[C@@H](O[C@@H]2O[C@H](CO)[C@H](O)[C@H](O)[C@H]2O)[C@@H]1O[C@@H]1O[C@@H](C)[C@@H](O)[C@@H](O)[C@@H]1O", "note": "(stereo partly shown) [LNFIII]", "values": [{"measurement": "effect on binding of neutrophils to purified, immobilized GMP-140", "value": "absolutely no effect"}]}
